In brackets after ≈: the same amount, converted by molar mass.
What was measured:
Type in all cases: cell-based
Botrytis cinerea [1] = assay: Volatile MIC assay (Example 10); settings: 72 h, volatile treatment, 3 days at 23 C, read-out: MIC (mg/L) BOTRCI
Method: (§1) 12-Well (6.5 mL volume per well) microtiter plates are used for the in vitro inhibition assay for volatile antimicrobial compounds. A 3-mL volume of full-strength Potato Dextrose Agar (PDA) is added to each well. After cooling, 1 μL of 1×10^5 per mL Botrytis cinerea and Penicillium expansum spore suspension is spot-pipetted to the center of the agar. Plates are inoculated immediately prior to volatile fungicide treatment. A Whatman #1 filter disk (Cat. No. 1001-0155) is placed, in duplicate, on the underside of a polyethylene PCR plate sealing film. […] The headspace around the inoculum is then sealed inside the well by the film with the adhering disk containing the fungicide by inverting the plates over the treated disks and sealing to prevent any of the chemical from flaking from the disk and falling onto the inoculated agar. After 3 days of storage at 23° C., the cultures are evaluated for percent growth relative to control based on measurement of fungal colony diameter.

Penicillium expansum [2] = assay: Volatile MIC assay (Example 10); settings: 72 h, volatile treatment, 3 days at 23 C, read-out: MIC (mg/L) PENIEX
Method: as §1

Alternaria alternata = assay: Volatile MIC assay (Example 9); settings: 72 h, headspace concentration, 3 days at 23 C, read-out: MIC (mg/L) ALTEAL
Method: (§2) A 3-mL volume of full-strength Potato Dextrose Agar (PDA) is added to each well. […] Plates are inoculated immediately prior to volatile fungicide treatment. A Whatman #1 filter disk (Cat. No. 1001-0155) is placed, in duplicate, on the underside of a polyethylene PCR plate sealing film. […] The acetone is permitted to evaporate for 5 minutes. The headspace around the inoculum is then sealed inside the well by the film with the adhering disk containing the fungicide by inverting the plates over the treated disks and sealing to prevent any of the chemical from flaking from the disk and falling onto the inoculated agar.

Botrytis cinerea [3] = assay: Volatile MIC assay (Example 9); settings: 72 h, headspace concentration, 3 days at 23 C, read-out: MIC (mg/L) BOTRCI
Method: as §2

Monilinia fructicola = assay: Volatile MIC assay (Example 9); settings: 72 h, headspace concentration, 3 days at 23 C, read-out: MIC (mg/L) MONIFC
Method: as §2

Penicillium expansum [4] = assay: Volatile MIC assay (Example 9); settings: 72 h, headspace concentration, 3 days at 23 C, read-out: MIC (mg/L) PENIEX
Method: as §2

B. cinerea = assay: In vitro contact assay, amended agar (Example 24); settings: Botrytis cinerea, 72 h; amended agar; 100% control; 3 days at 23 C; read-out: Contact MIC (mg/L) B. cinerea
Method: (§3) Contact assay: 6-well (16.5 mL volume per well) microtiter plates are used for an in vitro inhibition assay. […] A 7.5-mL volume of the amended media is added to each well of the microtiter plate. […] The plates are sealed with a clear film and incubated for 3 days at 23° C. After incubation, plates are evaluate for percent growth relative to acetone only control.

P. expansum = assay: In vitro contact assay, amended agar (Example 24); settings: Penicillium expansum, 72 h; amended agar; 100% control; 3 days at 23 C; read-out: Contact MIC (mg/L) P. expansum
Method: as §3

Botrytis cinerea [5] = assay: In vitro volatile assay (Example 24); settings: 72 h, headspace, 100% control, 3 days at 23 C, read-out: Volatile MIC (mg/L) B. cinerea
Method: (§4) Volatile assay: 12-well (6.5 mL volume per well) microtiter plates are used. A 3-mL volume of half strength PDA is added to each well. […] A Whatman #1 filter disk (Cat. No. 1001-0155) is placed, in duplicate, on the underside of a polyethylene PCR plate sealing film. […] The acetone is permitted to evaporate for 5 minutes. The headspace around the inoculum is then sealed inside the well by the film with the adhering disk containing the fungicide. Plates are inverted, placed over the treated disks, and sealed to prevent any of the chemical from flaking from the disk and falling onto the inoculated agar. […] Contact assay: 6-well (16.5 mL volume per well) microtiter plates are used for an in vitro inhibition assay. […] A 7.5-mL volume of the amended media is added to each well of the microtiter plate. […] The plates are sealed with a clear film and incubated for 3 days at 23° C. After incubation, plates are evaluate for percent growth relative to acetone only control.

Penicillium expansum [6] = assay: In vitro volatile assay (Example 24); settings: 72 h, headspace, 100% control, 3 days at 23 C, read-out: Volatile MIC (mg/L) P. expansum
Method: as §4

[7] = system: Trichophyton mentagrophytes; assay: In vitro contact assay (Example 26); settings: Trichophyton mentagrophytes, 120 h, 5 days at 28 C, 100% control, read-out: MIC (mg/L) Trichophyton mentagrophytes
Method: (§5) Half-strength Potato Dextrose Agar (PDA) is amended with a mixture of one of the test compounds in acetone or methanol to a final concentration of 50, 10, 2, 0.4 or 0.08 mg/L. A 3-mL volume of the amended media is added to each well of the microtiter plate. […] The plates are sealed with a clear film and incubated inverted for 5 days at 28° C.

Trichophyton rubrum [8] = assay: In vitro contact assay (Example 26); settings: Trichophyton rubrum, 120 h, 5 days at 28 C, 100% control, read-out: MIC (mg/L) Trichophyton rubrum
Method: as §5

[9] = system: Trichophyton mentagrophytes; assay: In vitro volatile assay (Example 26); settings: Trichophyton mentagrophytes, 120 h, 5 days at 28 C, 100% control, read-out: MIC (mg/L) Trichophyton mentagrophytes
Method: (§6) Volatile assay: 6-well (16.5 mL volume per well) microtiter plates are used in an in vitro inhibition assay for Compounds A and 31, and compared to other registered fungicides (5-fluorocytosine, Amphotericin B, aspofungin diacetate, Fluconazole and Itraconazole). A 7.5-mL volume of half strength PDA is added to each well. After drying, a mycelial plug (5 mm diameter) is aseptically obtained from actively growing cultures of Epidermophyton floccus, Trichophyton rubrum, or Trichophyton mentagrophytes and placed at the center of the plate with the mycelial side in contact with the agar. A Whatman #1 filter disk (Cat. No. 1001-325) is placed, in duplicate, on the underside of a polyethylene PCR plate sealing film. […] The headspace around the inoculum is then sealed inside the well by the film with the adhering disk containing the fungicide and incubated inverted for 5 days at 28° C.

Trichophyton rubrum [10] = assay: In vitro volatile assay (Example 26); settings: Trichophyton rubrum, 120 h, 5 days at 28 C, 100% control, read-out: MIC (mg/L) Trichophyton rubrum
Method: as §6

SMILES	MIC (Botrytis cinerea [1])	MIC (Penicillium expansum [2])	further results
NCCOB1OCc2ccccc21 [Compound 21]	1.1 mg/L (≈ 6.21 µM)	35.7 mg/L (≈ 202 µM)	
CN(C)CCOB1OCc2ccccc21 [Compound 22]	4.5 mg/L (≈ 21.9 µM)	35.7 mg/L (≈ 174 µM)	
CCCCOB1OCc2cc(F)ccc21 [Compound 30]			MIC (Alternaria alternata): 2.2 mg/L (≈ 10.6 µM); MIC (Botrytis cinerea [3]): 2.2 mg/L (≈ 10.6 µM); MIC (Monilinia fructicola): 2.2 mg/L (≈ 10.6 µM); MIC (Penicillium expansum [4]): 8.9 mg/L (≈ 42.8 µM)
CC(COB1OCc2cc(F)ccc21)OB1OCc2cc(F)ccc21 (stereo not shown) [Compound 31]			MIC (B. cinerea): 0.4 mg/L (≈ 1.16 µM); MIC (P. expansum): 2 mg/L (≈ 5.82 µM); MIC (Botrytis cinerea [5]): 0.6 mg/L (≈ 1.74 µM); MIC (Penicillium expansum [6]): 8.9 mg/L (≈ 25.9 µM); MIC [7]: 2 mg/L (≈ 5.82 µM); MIC (Trichophyton rubrum [8]): 10 mg/L (≈ 29.1 µM); MIC [9]: 2 mg/L (≈ 5.82 µM); MIC (Trichophyton rubrum [10]): 2 mg/L (≈ 5.82 µM)
NCCOB1OCc2cc(F)ccc21 [Compound 34]			MIC (Alternaria alternata): 2.2 mg/L (≈ 11.3 µM); MIC (Botrytis cinerea [3]): < 0.6 mg/L; MIC (Penicillium expansum [4]): 2.2 mg/L (≈ 11.3 µM); MIC (B. cinerea): 2 mg/L (≈ 10.3 µM); MIC (P. expansum): 0.4 mg/L (≈ 2.05 µM); MIC (Botrytis cinerea [5]): 0.6 mg/L (≈ 3.08 µM); MIC (Penicillium expansum [6]): 2.2 mg/L (≈ 11.3 µM)
COCCOB1OCc2cc(F)ccc21 [Compound 38]	0.6 mg/L (≈ 2.86 µM)	8.9 mg/L (≈ 42.4 µM)	
COCCCOB1OCc2cc(F)ccc21 [Compound 39]	0.6 mg/L (≈ 2.68 µM)	8.9 mg/L (≈ 39.7 µM)	
OCCOCCOCCOB1OCc2cc(F)ccc21 [Compound 55]	4.5 mg/L (≈ 15.8 µM)	> 35.7 mg/L	
OCCOCCOB1OCc2cc(F)ccc21 [Compound 62]	2.2 mg/L (≈ 9.17 µM)	8.9 mg/L (≈ 37.1 µM)	
CN(C)CCCOB1OCc2cc(F)ccc21 [Compound 63]	1.1 mg/L (≈ 4.64 µM)	17.9 mg/L (≈ 75.5 µM)	
NCCCOB1OCc2cc(F)ccc21 [Compound 64]	1.1 mg/L (≈ 5.26 µM)	8.9 mg/L (≈ 42.6 µM)	
CN(CCO)CCOB1OCc2cc(F)ccc21 [Compound 72]	35.7 mg/L (≈ 141 µM)	> 35.7 mg/L	
OCCNCCOB1OCc2cc(F)ccc21 [Compound 73]	35.7 mg/L (≈ 149 µM)	> 35.7 mg/L	
CN(C)CCOB1OCc2cc(F)ccc21 [Compound 74]	2.2 mg/L (≈ 9.86 µM)	35.7 mg/L (≈ 160 µM)	
OCCCCCCOB1OCc2cc(F)ccc21 [Compound 86]	0.6 mg/L (≈ 2.38 µM)	8.9 mg/L (≈ 35.3 µM)	
CNCCOB1OCc2cc(F)ccc21 [Compound 87]	0.6 mg/L (≈ 2.87 µM)	8.9 mg/L (≈ 42.6 µM)	
OB1OC(N2CCOCC2)c2ccccc21 (stereo not shown) [Compound 114]	17.9 mg/L (≈ 81.7 µM)	> 35.7 mg/L	
CC(C)(N)COB1OCc2cc(F)ccc21 [Compound 115]	0.6 mg/L (≈ 2.69 µM)	8.9 mg/L (≈ 39.9 µM)	
